According to ChEMBL document CHEMBL1201862, “PubChem BioAssay data set” (2004):
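Method: 48-hour compound exposure of cells in 96-well plates, five concentrations, linear interpolation of endpoints. GI50: concentration for 50% inhibition of growth.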 Activity calls are given as the source filed them. Rule as the data show it: active = GI50 up to about 1.1 µM and inactive = higher. Non-standard residues stand in square brackets, D forms with d. Residues, ends and D or L forms follow the SMILES beside them. ξ: configuration not given here. *: point of attachment. ξF = NC(Cc1ccccc1)C(=O)O; Cbz = O=C(OCc1ccccc1)*; Aib = CC(C)(N)C(=O)O

Assays:
Test in all cases: NCI-60 cell line screen, 48 h
[1] = system: Malme-3M
[2] = system: KM-20L2
[3] = system: OVCAR-3
[4] = system: RPMI-8226
[5] = system: SF-539
[6] = system: DMS-273
[7] = system: CAKI-1
[8] = system: SK-OV-3
[9] = system: DMS-114
[10] = system: OVCAR-8
[11] = system: NCI-H23
[12] = system: DLD-1
[13] = system: SNB-75
[14] = system: UACC-257
[15] = system: NCI/ADR-RES
[16] = system: T47D
[17] = system: MDA-N
[18] = system: MDA-MB-231
[19] = system: MDA-MB-435
[20] = system: Hs-578T

Row | SMILES | GI50 [1] | GI50 [2] | GI50 [3] | GI50 [4] | GI50 [5] | GI50 [6] | GI50 [7] | GI50 [8] | GI50 [9] | GI50 [10] | GI50 [11] | GI50 [12] | GI50 [13] | GI50 [14] | GI50 [15] | GI50 [16] | GI50 [17] | GI50 [18] | GI50 [19] | GI50 [20]
1 | O=c1sc2ccccc2n1CC1CS1 (stereo unspecified) | > 100 µM (inactive) | > 100 µM (inactive) | > 100 µM (inactive) | > 100 µM (inactive) | > 100 µM (inactive) | > 100 µM (inactive) | > 100 µM (inactive) | > 100 µM (inactive) | > 100 µM (inactive) | > 100 µM (inactive) | – | – | – | – | – | – | – | – | – | –
2 | C/C(CCOC1CCCCO1)=C(\C)[Si](C)(C)C (stereo unspecified) | > 100 µM (inactive) | > 100 µM (inactive) | > 100 µM (inactive) | > 100 µM (inactive) | > 100 µM (inactive) | – | – | > 10 µM (inactive) | > 100 µM (inactive) | > 100 µM (inactive) | > 100 µM (inactive) | > 100 µM (inactive) | > 100 µM (inactive) | > 100 µM (inactive) | – | – | – | – | – | –
3 | Nc1ccn(C2OC(COP(=O)(O)Oc3ccccc3)C(O)C2O)c(=O)n1 (stereo unspecified) | > 35.3 µM (inactive) | > 39.7 µM (inactive) | > 100 µM (inactive) | > 100 µM (inactive) | 93.3 µM (inactive) | 18.4 µM (inactive) | 24.5 µM (inactive) | > 100 µM (inactive) | 13.7 µM (inactive) | 7.67 µM (inactive) | 7.36 µM (inactive) | > 100 µM (inactive) | > 100 µM (inactive) | > 95.9 µM (inactive) | 16.7 µM (inactive) | – | – | – | – | –
4 | CCOC(=O)CNC(=O)C(Cc1ccccc1)NC(=O)C(C)(C)NC(=O)OCc1ccccc1 (stereo unspecified) (Cbz-[Aib]-[ξF]-Gly-OEt) | 18.6 µM (inactive) | – | 21.5 µM (inactive) | 32.6 µM (inactive) | – | – | > 100 µM (inactive) | – | – | > 100 µM (inactive) | – | – | – | 33.1 µM (inactive) | > 100 µM (inactive) | 77.8 µM (inactive) | > 100 µM (inactive) | > 100 µM (inactive) | 67.3 µM (inactive) | –
5 | COc1ccc(N2C(=O)C(=O)N(C)C2=O)c2ccccc12 | > 10 µM (inactive) | – | > 10 µM (inactive) | > 10 µM (inactive) | > 10 µM (inactive) | – | > 10 µM (inactive) | > 10 µM (inactive) | – | > 10 µM (inactive) | > 10 µM (inactive) | – | > 10 µM (inactive) | – | > 10 µM (inactive) | > 10 µM (inactive) | – | > 10 µM (inactive) | > 10 µM (inactive) | > 10 µM (inactive)
6 | C[n+]1cccc2c(=O)c3ccccc3oc21 | > 100 µM (inactive) | – | > 100 µM (inactive) | – | > 100 µM (inactive) | – | > 100 µM (inactive) | > 100 µM (inactive) | – | > 100 µM (inactive) | > 100 µM (inactive) | – | > 100 µM (inactive) | – | > 100 µM (inactive) | > 100 µM (inactive) | > 100 µM (inactive) | > 100 µM (inactive) | > 100 µM (inactive) | > 100 µM (inactive)
7 | CN1C(=O)c2ccccc2NC(=O)c2cnn(C)c21 | > 100 µM (inactive) | > 100 µM (inactive) | > 100 µM (inactive) | > 100 µM (inactive) | > 100 µM (inactive) | > 100 µM (inactive) | > 100 µM (inactive) | > 100 µM (inactive) | > 100 µM (inactive) | > 100 µM (inactive) | > 100 µM (inactive) | > 100 µM (inactive) | > 100 µM (inactive) | > 100 µM (inactive) | > 100 µM (inactive) | – | – | – | – | –
8 | COc1ccc(N2NC(c3ccccc3)(c3ccccc3)C(C)C2=O)cc1 (stereo unspecified) | 61.7 µM (inactive) | – | > 100 µM (inactive) | > 100 µM (inactive) | 85.1 µM (inactive) | – | 54.2 µM (inactive) | – | – | 79.8 µM (inactive) | 65.6 µM (inactive) | – | > 100 µM (inactive) | 51.3 µM (inactive) | 48.2 µM (inactive) | 39 µM (inactive) | 39.1 µM (inactive) | 52.1 µM (inactive) | 57.3 µM (inactive) | 67.5 µM (inactive)
9 | COc1ccc(-n2cnnc2-c2nsc3ccccc23)cc1 | – | > 100 µM (inactive) | 51.4 µM (inactive) | 60 µM (inactive) | 23.4 µM (inactive) | 44.7 µM (inactive) | – | – | > 100 µM (inactive) | > 100 µM (inactive) | 95.3 µM (inactive) | – | 22.2 µM (inactive) | > 100 µM (inactive) | – | – | – | – | – | –
10 | COC1=CC(=O)c2c(c(O)c3oc4cc(OC)cc(C)c4c(=O)c3c2O)C1=O [BIKAVERIN] | 1.17 µM (inactive) | 5.94 µM (inactive) | 0.809 µM (active) | 1.01 µM (active) | 1.32 µM (inactive) | 0.759 µM (active) | 0.195 µM (active) | 1.56 µM (inactive) | 0.462 µM (active) | 0.178 µM (active) | 1.07 µM (active) | 1.8 µM (inactive) | 1.21 µM (inactive) | 1.2 µM (inactive) | 0.881 µM (active) | – | – | – | – | –
